Source: US10328075B2, “Method of treatment and compounds for use therein” (Baker Heart and Diabetes Institute, priority 2015, dated 2019)
Like-named read-outs stand apart in the source and are kept apart here.

Columns and labels:
Format in all cases: cell-based
[1] = biological target: T1, hFPR1 (Homo sapiens, UniProt P21462); experiment: Quantification of biased agonism (operational model) at hFPR1 in CHO cells; details: for Bias (away from Ca2+i), hFPR1-FlpInCHO cells in vitro: Table 9
T1 construct: expressed in transfected cells
T1 sequence (P21462 1-350): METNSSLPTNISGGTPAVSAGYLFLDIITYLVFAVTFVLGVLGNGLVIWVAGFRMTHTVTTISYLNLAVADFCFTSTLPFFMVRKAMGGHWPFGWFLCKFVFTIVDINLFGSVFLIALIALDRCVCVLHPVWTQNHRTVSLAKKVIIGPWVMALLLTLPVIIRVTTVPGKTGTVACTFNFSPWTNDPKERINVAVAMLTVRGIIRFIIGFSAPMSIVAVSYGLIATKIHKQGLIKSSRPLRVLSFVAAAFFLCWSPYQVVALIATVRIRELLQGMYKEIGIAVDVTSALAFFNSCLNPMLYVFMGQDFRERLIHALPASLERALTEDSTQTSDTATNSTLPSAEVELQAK
Excerpt: To quantify biased agonism mediated by each agonist across the various pathways ([Ca^2+], mobilization, pERK1/2, Akt1/2/3 and inhibition of cAMP accumulation), agonist concentration-response curves were refitted using the operation model normalized to the transduction ratio of a reference agonist (in this case, BIDI-002) as described previously (Stewart G D et al., 2009). Under these conditions, if the test agonist and the reference agonist activate the two pathways through a common receptor conformation, the log [bias factor] should be 0.0 (or bias factor different from 1.0), irrespective of differences in response amplification between pathways. In contrast, significant deviation of log [bias factor] from 0.0 (or bias factor different from 1.0) indicates the involvement of distinct conformations for the different agonists. All affinities, potencies, efficacies, and cooperativity parameters were estimated as logarithms (Christopoulos, 1998). Results are expressed as means±S.E. unless otherwise stated. Statistical analyses were by Student's t test, or one-way ANOVA followed by Dunnett's Comparison or Tukey's post-hoc test, as appropriate. Values of p<0.05 were considered statistically significant.
A “transduction ratio” is firstly derived for each response (τ/KA, where τ represents efficacy, and KA affinity, of the agonist for each GPCR conformational state), extracted from each concentration-response curve. “Bias factors” (ΔΔ(τ/KA)) were then calculated by normalizing the transduction ratio to a reference ligand (in this case, Cmpd43) and reference pathway, which here was Akt1/2/3(Thr308) phosphorylation. Lastly, bias factors were plotted on a ‘web of bias’ to visualize the potential for biased agonism. […] Under these conditions, if the test agonist and the reference agonist activate the two pathways through a common receptor conformation, the log [bias factor] should be 0.0 (i.e. the bias factor 1.0), irrespective of differences in response amplification between pathways. In contrast, significant deviation of log [bias factor] away from 0.0 (i.e. where the bias factor is different to 1.0) indicates the involvement of distinct conformations for the different agonists. All affinities, potencies, efficacies, and cooperativity parameters were estimated as logarithms (Kenakin et al. 2012).
Five signaling pathways were examined, namely pERK1/2-phosphorylation, Akt1/2/3(Ser473)-phosphorylation, Akt1(Thr308)-phosphorylation, increases in Ca2+i and inhibition of forskolin-induced cAMP accumulation. An operational model of agonism was fitted to each concentration-response curve to estimate a transduction ratio (τ/KA) for each agonist, at each pathway assessed, as described (FIG. 21B) (Kenakin et al. 2012). Transduction ratios were normalized to a reference agonist (Cmpd43) and a reference pathway (Akt1/2/3(Thr308)-phosphorylation), generating bias factors and therefore allowing quantitative cross-pathway comparison for each agonist.

[2] = biological target: T2, hFPR2 (Homo sapiens, UniProt P25090); experiment: Inhibition of forskolin-stimulated cAMP accumulation in hFPR2-FlpIn-CHO cells; details: for ΔLog(τ/KA), inhibition of cAMP accumulation, hFPR2-Flpln-CHO: normalized transduction coefficient, reference agonist Cmpd43; for Log(τ/KA), inhibition of cAMP accumulation, hFPR2-Flpln-CHO: transduction coefficient; for Effect on the cAMP response at hFPR2: over the concentration range tested
T2 construct: expressed in transfected cells
T2 sequence (P25090 1-351): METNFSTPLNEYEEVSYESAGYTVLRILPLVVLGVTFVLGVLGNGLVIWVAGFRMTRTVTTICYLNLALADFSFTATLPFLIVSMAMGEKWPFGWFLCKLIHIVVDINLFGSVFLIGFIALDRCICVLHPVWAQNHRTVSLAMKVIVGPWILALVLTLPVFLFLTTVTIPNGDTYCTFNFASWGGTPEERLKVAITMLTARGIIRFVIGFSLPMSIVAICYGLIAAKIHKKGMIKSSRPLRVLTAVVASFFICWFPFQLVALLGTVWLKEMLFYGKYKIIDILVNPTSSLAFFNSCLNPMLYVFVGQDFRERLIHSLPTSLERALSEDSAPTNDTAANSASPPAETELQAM
Excerpt: cDNDA construct and generation of stable cell lines: cDNA in pcDNA3.1^+ encoding the human formyl peptide receptors (FPR) subtypes, hFPR1, hFPR2 and hFPR3 was obtained from Invitrogen. The sequences for 3 hFPR receptors were amplified by PCR and cloned into the Gateway entry vector, pDONR202™, using the BP clonase enzyme mix, according to the manufactures' instructions (Invitrogen Inc, Carlsbad, Calif., USA). All hFPR receptors constructs in pDONR201™ were subsequently transfected into the pEF5/FRT/V5/dest vector using the LR clonase enzyme mix (Invitrogen). Receptor constructs (pEF5/FRT/V5/dest) were used to transfect FIp-In CHO cells as described previously (Valant C et al., PNAS, 2014). Cells were selected using 500 μg/mL hydromycin to generate cell lines stably expressing each receptor construct. Cells were maintained and cultured in high glucose DMEM supplemented with 10% FBS, 16 mM HEPES and 500 μg/mL hydromycin at 37° C. under a humidified atmosphere containing 5% CO2.
In the various assays described below, cells were plated into 96-well transparent cell culture plates at 4×10^4 cells per well, cultured overnight in serum-free media at 37° C. in 5% CO2.
cAMP Accumulation: CHO-hFPR1, -hFPR2 and -hFPR3 stable transfected cells were plated into 96-well plates and cultured overnight at 37° C. in 5% CO2. Cells were washed with PBS, and cultured overnight. […] Cells were lysed in detection buffer (dH2O, 0.3% Tween 20, 5 mM HEPES, 0.1% BSA). Lysates were transferred to a 384-well plate and mixtures of detection buffer/donor bead-conjugated anti-cAMP antibody and detection buffer: biotinylated cAMP: acceptor bead-conjugated streptavidin were added to the lysates according to the PerkinElmer cAMP Alphascreen protocol. Under low-light conditions, a 1:50 (v:v) dilution of AlphaScreen acceptor beads: stimulation buffer was prepared, 1:150 (v:v) dilution of donor beads and 50 nM biotinylated cAMP in detection buffer was prepared in a 384-well opaque optiplates. Plates were incubated in the dark at room temperature overnight before the fluorescence signal was measured by use of a Fusion-α plate reader (PerkinElmer Life and Analytical Sciences). Data were normalized to the response elicited by 10 μM forskolin at the same time point.
Data analysis: All data were analysed using GraphPad Prism 6.0 (GraphPad Software, San Deigo, Calif., USA). Where appropriate, concentration-response curves were fitted to derive the maximal agonist effect (Emax), and the ligand potency estimate (pEC50), where Emax is the maximal possible response of the system (not the agonist), basal is the basal level of response in the absence of agonist, and pEC50 is the negative logarithm of the agonist concentration that gives a response halfway between Emax and basal.
In the present study, FIp-IN CHO cells and Gateway plasmid were obtained from Invitrogen Inc (Carlsbad, Calif., USA). The sequences for all 3 known human FPRs (hFPR1, hFPR2 and hFPR3) were amplified by PCR and cloned into the Gateway entry vector, pDONR202TM, using the BP clonase enzyme mix, according to the manufacturers' instructions. The hFPR pDONR201TM constructs were subsequently transfected into the pEF5/FRT/V5/dest vector using the LR clonase enzyme mix (Invitrogen). Receptor constructs (pEF5/FRT/V5/dest) were used to transfect FIp-IN CHO cells, as described previously (Valant et al. 2014). Cells were selected using 500 μg/mL hydromycin to generate cell lines stably expressing each human receptor construct. Cells were maintained and cultured in high glucose Dulbecco's modified eagle medium (DMEM) supplemented with 10% fetal bovine serum (FBS, from JRH Biosciences, Lenexa, Kans., USA) and 500 μg/mL hydromycin B (Invitrogen Inc) at 37° C. under a humidified atmosphere containing 5% CO2. Cell were plated into 96-well transparent cell culture plates at 4×10^4 cells per well, cultured overnight in serum-free media at 37° C. in 5% CO2.

[3] = system: mFpr1, mFpr2 expression in AMCF; experiment: Fpr gene expression in adult mouse cardiac fibroblasts (real-time PCR); details: 10 μM, 24 h incubation, TGF-β
Method: AMCFs were starved overnight in serum-free DMEM prior to incubation with the pro-fibrotic stimulus transforming growth factor TGF-β (10 ng/ml) for 24 h at 37° C. FPR agonists Cmpd17b, Cmpd43 (both 10 μM) or vehicle were present 30 min prior to TGF-β. At the end of 24 h stimulation, RNA was extracted and real-time PCR performed to determine the relative gene expression of CTGF and IL-1β, relative to housekeeping gene 18S, as described previously (5). Relative gene expression of mouse Fprs (mFpr1 and mFpr2, expressed as the threshold cycle number Ct subtracted from the maximum cycle number utilized, 40) was also determined at the end of 24 h stimulation.

[4] = Table 4, percentage inhibition of forskolin-stimulated cAMP accumulation, read-out: Emax (%), inhibition to cAMP accumulation, hFPR2-Flpln-CHO
[5] = Table 8, percent inhibition of forskolin-induced cAMP accumulation, read-out: Emax, inhibition of cAMP accumulation, hFPR2-Flpln-CHO

Row | Structure (SMILES) | Bias (away from Ca2+i), hFPR1-FlpInCHO cells in vitro [1] | Preference to Akt phosphorylation, ERK phosphorylation and cAMP accumulation (degree of bias) ([1]; operational model, relative to BIDI-002, hFPR receptors) | Emax [2, 4] [%] | EC50 ([2]; Table 4, read-out: pEC50, inhibition to cAMP accumulation, hFPR2-Flpln-CHO (converted)) [nM] | ΔLog(τ/KA), inhibition of cAMP accumulation, hFPR2-Flpln-CHO ([2]; Table 8) | Emax [2, 5] [%] | EC50 ([2]; Table 8, read-out: pEC50, inhibition of cAMP accumulation, hFPR2-Flpln-CHO (converted)) [nM] | Log(τ/KA), inhibition of cAMP accumulation, hFPR2-Flpln-CHO ([2]; Table 8) | Effect on the cAMP response at hFPR2 [2] | AMCF expression of mFpr1 [3] | AMCF expression of mFpr2 [3] | Biased agonism / bias away from Ca2+i ([1]; in words)
1 | CC(C)C1C(NC(=O)Nc2ccc(Cl)cc2)C(=O)N(c2ccccc2)N1C (stereo not shown) [BIDI-002] | No | approximately 20 fold | 66 ± 6 | 170 | 0.0 | 66 ± 6 | 251 | 6.5 ± 0.1 | caused an inhibition of the cAMP response | restored |  | 
2 | COc1cccc(Cc2cc(C)nn(C(C)C(=O)Nc3ccc(Br)cc3)c2=O)c1 (stereo not shown) [BIDI-001, N-(4-bromophenyl)-2-[5-(3-methoxybenzyl)-3-methyl-6-oxo-6H-pyridazin-1-yl]-propionamide] |  |  |  |  |  |  |  |  |  | did not significantly influence | did not significantly influence | 
3 | Cc1cc(Cc2cccnc2)c(=O)n(CC(=O)Nc2ccc(Cl)cc2)n1 [MIPS-0010396] | Strong |  |  |  |  |  |  |  |  |  |  | displays Ca2+i bias
4 | CSCC[C@H](NC=O)C(=O)N[C@@H](CC(C)C)C(=O)N[C@@H](Cc1ccccc1)C(=O)O [fMLP, N-formyl-Met-Leu-Phe] |  |  | 10 ± 8 |  | −1.6 ± 0.2 | 10 ± 8 |  | 4.9 ± 0.1 | caused an inhibition of the cAMP response |  |  | 
